From the supplement of paper PMC8967900

Key:
Assay in all cases: selective drug sensitivity score (sDSS, relative to normal bone marrow) (sDSS (score)); higher = more potent and effective on the cell line relative to normal bone marrow cells
Conditions in all cases: 72 h
JURKAT = test system: JURKAT
PEER = test system: PEER
HAL-01 = test system: HAL-01
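Also: ALL cell lines in 384-well plates, five doses spanning 10,000-fold, each plate scaled between vehicle and 100 µmol/L benzalkonium chloride controls, sDSS an adapted area-under-curve metric.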

SMILES	selective drug sensitivity score (JURKAT)	selective drug sensitivity score (PEER)	selective drug sensitivity score (HAL-01)
CN1CCC(COc2cnc(-c3cccc(Cn4nc(-c5cccc(C#N)c5)ccc4=O)c3)nc2)CC1 [Tepotinib] (top concentration 1000 nM)	-0.08	0.02	-0.08
COc1cc2ncnc(Nc3cccc(Cl)c3F)c2cc1OC(=O)N1CCN(C)C[C@H]1C [AZD3759] (top concentration 1000 nM)	-0.04	-0.04	-0.04
CN(CC(=O)N(Cc1ccc(C2CCCCC2)cc1)c1ccc(C(=O)O)cc1)S(=O)(=O)c1c(F)c(F)c(F)c(F)c1F [SH-4-54] (top concentration 25000 nM)	-6.14	-4.54	-6.34
C/C(=C\c1csc(C)n1)[C@@H]1C[C@@H]2O[C@]2(C)CCC[C@H](C)[C@H](O)[C@@H](C)C(=O)C(C)(C)[C@@H](O)CC(=O)N1 [Ixabepilone] (top concentration 1000 nM)	3.28	3.28	1.78
CC[C@]12C=CCN3CC[C@@]4(c5cc([C@@]6(C(=O)OC)C[C@@H]7C[C@@H](C(C)(F)F)CN(Cc8c6[nH]c6ccccc86)C7)c(OC)cc5N(C)[C@H]4[C@@](O)(C(=O)OC)[C@@H]1OC(C)=O)[C@@H]32 [Vinflunine] (top concentration 1000 nM)	4.48	5.08	1.38
O=C(O)CNC(=O)c1c(O)c2ccccc2n(Cc2ccccc2)c1=O [IOX-2] (top concentration 50000 nM)	-0.82	-0.82	-0.82
Cc1cc(C)c(CNC(=O)c2cc(-c3ccc(CN4CCOCC4)cc3)cc3c2cnn3C2CCCC2)c(=O)[nH]1 [EPZ-5687] (top concentration 10000 nM)	-0.36	-0.36	3.24
Cc1cc(F)c(C(=O)Nc2cccc(-c3nncn3C(C)C)n2)cc1-n1cnc(C2CC2)c1 [Selonsertib] (top concentration 1000 nM)	0	0	6.6
Cc1nc(C(=O)NCC(=O)O)c(O)c2ccc(Oc3ccccc3)cc12 [Roxadustat] (top concentration 10000 nM)	-0.42	0.58	1.08
CS(=O)(=O)CCNCc1ccc(-c2ccc3ncnc(Nc4ccc(OCc5cccc(F)c5)c(Cl)c4)c3c2)o1 [Lapatinib] (top concentration 1000 nM)	0	0	2.2
CCn1cc(-c2ccnc3[nH]c(-c4cccc(CN(C)C)c4)cc23)c(-c2ccc(NC(=O)N(C)C)cc2)n1 (top concentration 1000 nM)	-1.84	20.4	1.46
COc1cc(NS(C)(=O)=O)ccc1Nc1c2ccccc2nc2ccccc12 [Amsacrine] (top concentration 10000 nM)	7.96	3.16	14.1
CC(C)Cn1cnc2c(N)nc3ccccc3c21 [Imiquimod] (top concentration 2500 nM)	0	0	2.6
CCc1cc2c(cc1N1CCC(N3CCOCC3)CC1)C(C)(C)c1[nH]c3cc(C#N)ccc3c1C2=O [Alectinib] (top concentration 1000 nM)	-0.22	0.78	1.28
C=CCc1cccc(/C=N/NC(=O)CN2CCN(Cc3ccccc3)CC2)c1O [PAC-1] (top concentration 10000 nM)	1.28	2.58	3.38
C=C1C[C@@H]2CC[C@@]34C[C@H]5O[C@H]6[C@@H](O3)[C@H]3O[C@H](CC[C@@H]3O[C@H]6[C@H]5O4)CC(=O)C[C@@H]3[C@@H](OC)[C@@H](C[C@H](O)CN)O[C@H]3C[C@H]3O[C@@H](CC[C@@H]1O2)C[C@@H](C)C3=C [Eribulin] (top concentration 1000 nM)	26.9	23.6	4.6
COC(=O)c1ccc([C@H]2c3[nH]c4ccccc4c3C[C@H](C(=O)OC)N2C(=O)CCl)cc1 [RSL3] (top concentration 10000 nM)	0	0	3.5
O=C1c2c(O)ccc(O)c2C(=O)c2c(NCCNCCO)ccc(NCCNCCO)c21 [Mitoxantrone] (top concentration 1000 nM)	-3.86	-6.26	5.64
Nc1ncnc2c1c(COc1cccc(Cl)c1)nn2C1CCOCC1 (top concentration 10000 nM)	0.06	-0.64	4.06
CC1(C)CNc2cc(NC(=O)c3cccnc3NCc3ccncc3)ccc21 [Motesanib] (top concentration 10000 nM)	-0.22	0.38	-0.22
NC(=O)c1cccc(-c2cccc(OC(=O)NC3CCCCC3)c2)c1 [URB597] (top concentration 1000 nM)	-0.46	-0.46	0.64
CCCN(CCC)C(=O)C1=Cc2ccc(-c3ccc(C(=O)N4CCCC4)cc3)cc2N=C(N)C1 [Motolimod] (top concentration 10000 nM)	-2.58	-3.18	-4.18
CCCOc1ccn2c(C(C)=O)cc(-c3ccccc3S(C)(=O)=O)c2c1 [GSK2801] (top concentration 10000 nM)	-0.26	0.34	-0.36
Nc1cc(COc2c(Cl)cc(C[C@H](N)C(=O)O)cc2Cl)c2oc(-c3ccccc3)nc2c1 [JPH203] (top concentration 5000 nM)	0	0	0.4
CC/C(=C(\c1ccccc1)c1ccc(OCCN(C)C)cc1)c1ccccc1 [Tamoxifen] (top concentration 10000 nM)	-1.48	1.02	1.82
NC(=S)N/N=C/c1ncccc1N [Triapine] (top concentration 10000 nM)	2.28	2.08	2.18
